Source: ChEMBL document CHEMBL1201862, “PubChem BioAssay data set” (2004)
Values belong to the compound of their own block, whether it stands above or below them. The source made the active and inactive calls.

How the values were obtained:
[1] = viability of uninfected HEp-2 cells – cell-based, HTS, cytotoxicity control for RSV inhibitor project, dose response (AID 2410); type: functional; settings: human respiratory syncytial virus
[2] = target: T1, Cytochrome P450 1A2 (Homo sapiens, UniProt P05177);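 also: PubChem cytochrome P450 panel assay, CYP1A2 panel member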
T1 sequence (P05177 whole entry): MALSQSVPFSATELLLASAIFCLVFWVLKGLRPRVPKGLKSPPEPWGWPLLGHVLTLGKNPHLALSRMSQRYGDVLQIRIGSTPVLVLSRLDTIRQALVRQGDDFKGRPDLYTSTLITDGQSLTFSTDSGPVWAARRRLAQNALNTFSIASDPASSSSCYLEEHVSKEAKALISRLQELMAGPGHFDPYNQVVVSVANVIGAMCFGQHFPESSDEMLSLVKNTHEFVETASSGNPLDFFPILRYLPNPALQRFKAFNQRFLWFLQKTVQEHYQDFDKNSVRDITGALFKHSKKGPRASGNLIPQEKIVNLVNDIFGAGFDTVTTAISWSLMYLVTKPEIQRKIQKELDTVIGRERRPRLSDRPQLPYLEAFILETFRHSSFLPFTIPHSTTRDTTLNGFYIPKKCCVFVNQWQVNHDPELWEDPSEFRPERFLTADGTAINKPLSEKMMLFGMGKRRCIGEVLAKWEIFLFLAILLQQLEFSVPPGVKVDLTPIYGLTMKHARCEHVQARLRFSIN

[3] = target: Cytochrome P450 2C19 (Homo sapiens, UniProt P33261); assay: Cytochrome panel assay with activity outcomes. Panel member name: p450-cyp2c19 Compounds with AC50 equal or less than 10 uM are considered active; type: functional
[4] = target: T2, Rac GTPase-activating protein 1 (Homo sapiens, UniProt Q9H0H5); assay: blockers of MgcRacGAP-driven Rac1 GTP hydrolysis – biochemical, ADP Hunter fluorescence, primary and confirmatory, confirmation (AID 624330); type: functional
T2 sequence (Q9H0H5 whole entry): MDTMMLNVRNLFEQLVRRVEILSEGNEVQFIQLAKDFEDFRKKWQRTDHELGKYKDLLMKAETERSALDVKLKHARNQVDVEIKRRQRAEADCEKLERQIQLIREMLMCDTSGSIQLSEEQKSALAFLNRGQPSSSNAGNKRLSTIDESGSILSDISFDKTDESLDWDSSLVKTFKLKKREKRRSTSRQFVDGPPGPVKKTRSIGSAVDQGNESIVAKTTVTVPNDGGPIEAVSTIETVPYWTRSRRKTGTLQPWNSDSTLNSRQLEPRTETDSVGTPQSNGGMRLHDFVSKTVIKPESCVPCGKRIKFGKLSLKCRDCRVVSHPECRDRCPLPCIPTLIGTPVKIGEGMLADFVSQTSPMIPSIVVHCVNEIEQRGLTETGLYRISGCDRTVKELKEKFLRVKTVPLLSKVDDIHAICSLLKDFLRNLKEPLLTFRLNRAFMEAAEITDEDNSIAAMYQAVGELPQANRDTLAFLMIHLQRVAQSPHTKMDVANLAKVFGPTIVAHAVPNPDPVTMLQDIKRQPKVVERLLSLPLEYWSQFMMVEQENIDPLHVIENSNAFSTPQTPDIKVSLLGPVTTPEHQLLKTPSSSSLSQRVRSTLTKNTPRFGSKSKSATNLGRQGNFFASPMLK

[5] = NIH3T3 cell viability loss – ATP luminescence, mouse fibroblasts, counter-screen, dose response (AID 2010); type: functional, cell-based;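 also: cells exposed to compound for about 90 hours before reading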
[6] = Trypanosoma cruzi growth suppression in host cells – NIH3T3 host cells, beta-gal luminescence, confirmation (AID 2044); type: functional, cell-based;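 also: intracellular parasites grown in NIH/3T3 mouse fibroblasts as host cells; luminescent beta-galactosidase reporter signal from transgenic T. cruzi replicating inside host cells; inhibitors lower the luminescence signal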

Cytochrome P450 2C19, sequence (P33261 whole entry): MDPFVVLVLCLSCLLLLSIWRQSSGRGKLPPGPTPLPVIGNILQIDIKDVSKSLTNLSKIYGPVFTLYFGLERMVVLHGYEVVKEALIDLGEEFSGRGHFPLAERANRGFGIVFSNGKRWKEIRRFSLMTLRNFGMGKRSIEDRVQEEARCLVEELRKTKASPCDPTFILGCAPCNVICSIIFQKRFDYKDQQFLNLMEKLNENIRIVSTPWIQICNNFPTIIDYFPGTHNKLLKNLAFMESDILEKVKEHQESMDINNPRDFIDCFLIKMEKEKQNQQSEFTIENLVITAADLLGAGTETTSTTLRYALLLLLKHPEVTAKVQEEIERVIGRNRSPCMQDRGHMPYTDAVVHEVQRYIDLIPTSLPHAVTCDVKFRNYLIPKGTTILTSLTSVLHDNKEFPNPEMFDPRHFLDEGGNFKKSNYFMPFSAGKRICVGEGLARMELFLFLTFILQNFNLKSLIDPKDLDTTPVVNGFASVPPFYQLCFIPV

SMILES: CCc1noc(C)c1C(=O)Nc1ccc(S(=O)(=O)N2CCC(C)CC2)cc1
CC50 [1]: 32.9 µM (active)

SMILES: NNC(N)=O [HYDRAZINECARBOXAMIDE]
AC50 [2]: 39.8 µM (inconclusive)

AC50 [2]: 28.2 µM (inconclusive)
AC50 ([3]; read-out: AC50): 20 µM (inconclusive)
SMILES: O=C(NCc1ccccc1Cl)c1cnccn1

IC50 [4]: 15.5 µM (active)
SMILES: Oc1ccc(Nc2ncnc3ccccc23)cc1

AC50 [3]: inconclusive
SMILES: C[C@@]12C=CC(=O)C=C1CC[C@@H]1[C@@H]2[C@H](O)C[C@]2(C)[C@@H]1CC[C@]2(O)C(=O)CO

SMILES: O=[N+]([O-])c1nn(-c2ccc3c(c2)OCCO3)[n+]([O-])c1NCCCO
EC50 [5]: > 60 µM (not active)
EC50 [6]: 0.75 µM (active)

AC50 [2]: 12.6 µM (inconclusive)
SMILES: O=c1c(CCc2ccccc2)nc2cncnc2n1Cc1ccccc1Cl

SMILES: COc1ccc2nc(Nc3ccccc3)sc2c1
CC50 [1]: 33.6 µM (active)

IC50 [4]: 110 µM (active)
SMILES: COc1cc(CN2CCC(C(=O)N3CCN(c4ccccc4F)CC3)CC2)ccc1O

SMILES: O=C(N/N=C/c1ccc([N+](=O)[O-])o1)C1CCCC1
EC50 [5]: > 60 µM (not active)
EC50 [6]: 0.429 µM (active)

SMILES: Oc1ccc(N2CCN(Cc3ccc(OCCCN4CCCCC4)cc3)CC2)cc1
EC50 [5]: > 30 µM (not active)
EC50 [6]: 0.114 µM (active)

IC50 [4]: 123 µM (active)
SMILES: C/C(=N\c1ccc(O)cc1)c1sc2ccccc2c1O

IC50 [4]: 59.6 µM (active)
SMILES: CCOc1cc(/C=N/NC(=O)c2ccc(=O)n(C)c2)ccc1O

SMILES: Cc1ccc(Nc2c([N+](=O)[O-])nn(-c3ccc(Cl)cc3)[n+]2[O-])cc1C
EC50 [5]: > 60 µM (not active)
EC50 [6]: 0.747 µM (active)

SMILES: Cc1nc(N2CCOCC2)nc(N2CCCCC2C)c1[N+](=O)[O-] (stereo unspecified)
CC50 [1]: 21.9 µM (active)

SMILES: COc1ccccc1CCNC1CCC(C(C)(C)C)CC1 (stereo unspecified)
EC50 [5]: > 60 µM (not active)
EC50 [6]: 1.37 µM (active)

SMILES: CCn1c(N=C(S)Nc2ccccc2)nc2ccccc21
EC50 [5]: > 60 µM (inconclusive)
EC50 [6]: 0.53 µM (active)

SMILES: O=C(Cc1ccccc1)N1CCN(Cc2ccc(F)cc2)CC1
IC50 [4]: 130 µM (active)

IC50 [4]: 115 µM (active)
SMILES: COc1ccc([C@H]2CN(c3ccc(OC)cc3)C(=O)[C@@H]2CC(=O)Nc2ccccc2)cc1

SMILES: Cc1ccc(-c2ccc(/C=N\NC(=O)C3C(=O)NCC3c3ccccc3)o2)cc1Cl (stereo unspecified)
CC50 [1]: 13 µM (active)

AC50 [2]: 14.1 µM (inconclusive)
SMILES: COc1ccc(CC(=O)NCc2ccccn2)cc1OC

AC50 ([3]; read-out: AC50): 10 µM (inconclusive)
SMILES: Cc1ccccc1OCCCN1CCCC1

SMILES: Cc1cccc(NS(=O)(=O)c2cc(C(=O)N3CCc4ccccc4C3)ccc2Cl)c1C
EC50 [5]: > 60 µM (not active)
EC50 [6]: 2.18 µM (active)

IC50 [4]: 61.8 µM (active)
SMILES: CCCCNc1[nH]c(=S)nc2cc(OC)c(OC)cc12

SMILES: COc1ccc(C(=O)/C=C/c2ccc(F)cc2)c(OC(=O)c2ccc([N+](=O)[O-])cc2)c1
CC50 [1]: 20.5 µM (active)

SMILES: CN(C)c1oc(-c2ccc(OCc3ccc(Cl)cc3)cc2)nc1C#N
EC50 [5]: > 60 µM (not active)
EC50 [6]: 8.31 µM (active)

SMILES: CCCCc1c(O)nc2ccc(C)cc2c1C
CC50 [1]: 26.6 µM (active)

SMILES: CN(C)CCCN(C(=O)c1cccs1)c1nc2cc3c(cc2s1)OCO3
EC50 [5]: > 60 µM (inconclusive)
EC50 [6]: 0.163 µM (active)

IC50 [4]: 41.4 µM (active)
SMILES: Nc1nc2c(s1)CCc1ccccc1-2

AC50 [3]: inconclusive
SMILES: O=C(O)[C@H](Cc1c[nH]c2ccccc12)N1C(=O)c2ccccc2C1=O

SMILES: Cc1n[nH]c(-c2ccc(OCc3cnn(-c4ccccc4)c3)cc2O)c1Oc1ccc(Cl)cc1
EC50 [5]: > 60 µM (not active)
EC50 [6]: 2.43 µM (active)

AC50 ([3]; read-out: AC50): 39.8 µM (inconclusive)
SMILES: COC(=O)[C@@]1(Cc2ccc(OC)cc2)[C@H]2c3cc(C(=O)N4CCCC4)n(Cc4ccccn4)c3C[C@H]2CN1C(=O)c1ccccc1

AC50 [2]: 12.6 µM (inconclusive)
SMILES: Cc1nn(Cc2c(F)c(F)c(F)c(F)c2F)c(C)c1NC(=O)c1cccc(COc2ccc(Cl)cc2)c1

IC50 [4]: 46.4 µM (active)
SMILES: Nc1ccc(N2CCCCC2)c(Cl)c1

SMILES: CSc1ccccc1OCc1cc(C(=O)N(C)C2CCCc3ccccc32)no1 (stereo unspecified)
CC50 [1]: 20.4 µM (active)

SMILES: Cc1cc(C)c(S(=O)(=O)c2ccccc2Cl)c(Cl)n1
EC50 [5]: > 60 µM (not active)
EC50 [6]: 2.32 µM (active)

SMILES: COc1ccccc1/C=C/[C@@H]1C[C@H]2CN(Cc3cccc(Cl)c3)C(=O)[C@]23CCCN13
CC50 [1]: 38.4 µM (active)

AC50 [2]: 39.8 µM (inconclusive)
SMILES: COc1nc(OCCNC(C)=O)nc(N(C)C)n1

SMILES: COc1cccc(CNc2ccc3c(c2)CCC3)c1
EC50 [5]: > 60 µM (not active)
EC50 [6]: 7.93 µM (active)

AC50 ([3]; read-out: AC50): 22.4 µM (inconclusive)
SMILES: CCOC(=O)N1CCN(C(=O)c2ccc(NC(C)=O)cc2)CC1

SMILES: Cc1cccc(OCC(=O)N2CCN(Cc3ccncc3)CC2)c1
IC50 [4]: 82.9 µM (active)

IC50 [4]: 46.6 µM (active)
SMILES: O=c1c2c([N+](=O)[O-])cc([N+](=O)[O-])cc2[s+]([O-])n1Cc1ccccc1 (stereo unspecified)

SMILES: CC(C)=NNc1ncnc2[nH]cnc12
AC50 [2]: 0.794 µM (inconclusive)

IC50 [4]: 172 µM (active)
SMILES: CCCCN(C)C(=O)C1CCN(Cc2cccc(OCc3ccccc3)c2)CC1

SMILES: Cc1ccc2nc(-c3ccncc3)cc(C(=O)NCCc3ccc(F)cc3)c2c1
EC50 [5]: > 60 µM (not active)
EC50 [6]: 1.7 µM (active)

AC50 ([3]; read-out: AC50): 28.2 µM (inconclusive)
SMILES: Cc1ccc(NC(=O)CCC(=O)NNC(=O)c2cccs2)c(C)c1

AC50 [2]: 1 µM (inconclusive)
SMILES: O=C1Nc2ccc(S(=O)(=O)O)cc2/C1=N/Nc1ccccc1[N+](=O)[O-]

AC50 ([3]; read-out: AC50): 39.8 µM (inconclusive)
SMILES: O=C(O)CCC(=O)CCC(=O)c1ccccc1

SMILES: O=C(c1ccco1)N(CCCN1CCOCC1)c1nc(-c2ccc(Cl)cc2)cs1
EC50 [5]: > 60 µM (not active)
EC50 [6]: 1.8 µM (active)

SMILES: C/C(=N\NC(=O)c1cc(-c2cccc(OC(C)C)c2)nc2ccccc12)c1cccnc1
EC50 [5]: > 30 µM (not active)
EC50 [6]: 0.611 µM (active)

SMILES: O=C1NC(=O)/C(=C/c2cccc([N+](=O)[O-])c2)N1
CC50 [1]: 31.2 µM (active)

IC50 [4]: 79.5 µM (active)
SMILES: N#Cc1c(O)nsc1Nc1ccccc1

AC50 [3]: inconclusive
SMILES: N#C[C@@H](/N=N\c1ccccc1C(=O)O)C(N)=O

SMILES: COC(=O)C1Cc2c([nH]c3ccccc23)C2(CCN(Cc3ccccc3)CC2)N1 (stereo unspecified)
EC50 [5]: 10.1 µM (active)
EC50 [6]: 1.6 µM (active)

SMILES: CN1c2ccccc2Oc2nnc(Cl)cc21
CC50 [1]: 43.3 µM (active)

IC50 [4]: 83.2 µM (active)
SMILES: Cc1ccc(CNc2ncc(-c3ccccc3)n2C)o1

IC50 [4]: 45.3 µM (active)
SMILES: Oc1ccc(/C=N/Nc2cc(N3CCOCC3)nc(N3CCOCC3)n2)cc1

SMILES: COC(=O)c1ccc(-c2sc3nc(N4CCOCC4)c4c(c3c2N)CCCC4)o1
EC50 [5]: 13.2 µM (active)
EC50 [6]: 2.63 µM (active)
